Holding throughout (assay): relative viability (nuclei count vs DMSO), 5 days (fraction); higher = more cells survive
Compound in experiment [1]: CC(C)C[C@H](NC(=O)[C@H](CCc1ccccc1)NC(=O)CN1CCOCC1)C(=O)N[C@@H](Cc1ccccc1)C(=O)N[C@@H](CC(C)C)C(=O)[C@@]1(C)CO1 [Carfilzomib] + CC(=O)c1c(C)c2cnc(Nc3ccc(N4CCNCC4)cn3)nc2n(C2CCCC2)c1=O [Palbociclib] (partner 0.5 µM)
In a few lines:
(§1)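 Lung cancer cell lines in 1536-well plates got either a single drug or a fixed anchor-drug dose together with five library-drug doses (not always all listed) in √10 steps, by pin tool, on the day after seeding. Nuclei were counted after 5 days, and relative viability is the treated-to-vehicle ratio of nuclei counts. Values are medians of duplicate plates.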

Compound in the experiment “Carfilzomib + Dasatinib”: CC(C)C[C@H](NC(=O)[C@H](CCc1ccccc1)NC(=O)CN1CCOCC1)C(=O)N[C@@H](Cc1ccccc1)C(=O)N[C@@H](CC(C)C)C(=O)[C@@]1(C)CO1 [Carfilzomib] + Cc1nc(Nc2ncc(C(=O)Nc3c(C)cccc3Cl)s2)cc(N2CCN(CCO)CC2)n1 [Dasatinib] (partner 0.075 µM)
A digest of the protocol:
as §1

Compound in the experiment “Crizotinib + Palbociclib”: C[C@@H](Oc1cc(-c2cnn(C3CCNCC3)c2)cnc1N)c1c(Cl)ccc(F)c1Cl [Crizotinib] + CC(=O)c1c(C)c2cnc(Nc3ccc(N4CCNCC4)cn3)nc2n(C2CCCC2)c1=O [Palbociclib] (partner 0.5 µM)
In a few lines: as §1

Compound in the experiment “Crizotinib + OSI-027”: C[C@@H](Oc1cc(-c2cnn(C3CCNCC3)c2)cnc1N)c1c(Cl)ccc(F)c1Cl [Crizotinib] + COc1cccc2cc(-c3nc([C@H]4CC[C@H](C(=O)O)CC4)n4ncnc(N)c34)[nH]c12 [OSI-027] (partner 0.5 µM)
A digest of the protocol:
as §1

Compound in the experiment “Crizotinib + Dasatinib”: C[C@@H](Oc1cc(-c2cnn(C3CCNCC3)c2)cnc1N)c1c(Cl)ccc(F)c1Cl [Crizotinib] + Cc1nc(Nc2ncc(C(=O)Nc3c(C)cccc3Cl)s2)cc(N2CCN(CCO)CC2)n1 [Dasatinib] (partner 0.075 µM)
A digest of the protocol: as §1

On to NCI-H1793, for which the relative viability in experiment [1] (first compound 0.001 µM) came to 0.338; in experiment [1] (first compound 0.003162 µM), 0.402; in experiment [1] (first compound 0.01 µM), 0.331; in experiment [1] (first compound 0.03162 µM), 0.275; in experiment [1] (first compound 0.1 µM), 0.197; in the experiment with Carfilzomib + Dasatinib (first compound 0.003162 µM) it was 0.507. Besides, the relative viability with Carfilzomib + Dasatinib (first compound 0.01 µM) amounted to 0.353; in the experiment with Carfilzomib + Dasatinib (first compound 0.03162 µM) it was 0.376; in the experiment with Carfilzomib + Dasatinib (first compound 0.1 µM), 0.389; in the experiment with Crizotinib + Palbociclib (first compound 0.03162 µM), 0.339; in the experiment with Crizotinib + Palbociclib (first compound 0.1 µM), 0.311; with Crizotinib + Palbociclib (first compound 1 µM) it was 0.277. Further, the relative viability with Crizotinib + OSI-027 (first compound 0.03162 µM) came out at 0.256; with Crizotinib + OSI-027 (first compound 0.1 µM), 0.278; with Crizotinib + OSI-027 (first compound 1 µM) it was 0.266; in the experiment with Crizotinib + Dasatinib (first compound 0.03162 µM) it was 0.401; with Crizotinib + Dasatinib (first compound 0.1 µM), 0.382; in the experiment with Crizotinib + Dasatinib (first compound 1 µM), 0.369.

The values are drawn from the supplement of paper PMC10307832.
